# Experimental data taken from patent US20100151520A1, “Translation Enhancer Elements Of Genes Encoding Human Tau Protein and Human Alpha-Synuclein Protein” (priority 2004, published 2010).
# Entries after “also recorded” stand apart in the source; their conditions may differ.
# Experiments:
# [1] = system: Transferrin receptor mRNA (TfR mRNA); assay: Quantitative real-time PCR of transferrin receptor mRNA (positive control) in SY5Y cells; format: cell-based
# Procedure: (§1) Quantitative real-time PCR (qRTPCR) was used to measure steady-state mRNA levels for α-synuclein mRNA relative to […] in response to iron. Neuroblastoma (SY5Y) cells were treated with iron or desferrioxamine (DFO) for 6 hours or 16 hours and control cells were left untreated (U) for the same indicated times (i.e., 6 hours untreated=U6, and 16 hours untreated=U16). TfR mRNA was the experimental positive control mRNA.
# (§2) The qRTPCR was conducted as follows. Total RNA was isolated from iron and desferrioxamine treated neuroblastoma cell line, SH-SY5Y according to manufacturers specification (RNAeasy Mini Kit, Qiagen, Valencia, Calif.). The optional on-column DNase digestion with the RNase-Free DNase set (Qiagen) was incorporated into all RNA isolations.
# (§3) 3 μg total RNA was primed with oligo-dT and the Superscript II enzyme according to manufacturer's instructions (Invitrogen, Carlsbad, Calif.) to synthesize […] cDNA. For qRTPCR, primer specificity was initially verified by searching for homology to genomic databases using NCBI BLAST. After completion of qRTPCR, the appropriately sized amplicon were confirmed by agarose gel electrophoresis. All reactions were performed in duplicate in a 50 μl volume consisting of 3 μl cDNA, 15 μmol each of the forward and reverse primer of β-Actin and 45 μmol each of the forward and reverse primer of all other primer pairs, and the fluorescent SYBR Green I dye. Fluorescence was measured at the end of each annealing cycle using the ABI Prism 7000 (Applied Biosystems, Foster City, Calif.). Average threshold cycle (Ct) values were measured in the exponential phase of the PCR reaction for each duplicate sample. Average Ct values were normalized against that β-Actin amplified in parallel from the same sample. Relative expression of the treated samples was determined by first normalizing against that of the untreated samples (ΔCT^sample−ΔCT^normal=ΔΔCT) and then calculating the fold change (fold change=2^−ΔΔCt).
# (§4) Primers used for quantitative real-time PCR were as follows: […]
# The details of the annealing temperature are as follows. […] For real-time PCR, the cDNA was amplified using an ABI PRISM 7000 Sequence Detection System (PE Applied Biosystems, Foster City, Calif.). The dsDNA-specific dye SYBR Green I incorporated into the PCR reaction buffer QuantiTech™ SYBR PCR (Qiagen) to allow for quantitative detection of the PCR product in a 25-μl reaction volume. The temperature profile of the reaction was 95° C. for 10 min, 40 cycles of denaturation at 95° C. for 15 sec, annealing at 60° C. for 30 sec, and extension at 72° C. for 30 sec. An internal housekeeping gene control, β-actin, was used to normalize differences in RNA isolation, RNA degradation, and the efficiencies of the RT. The size of the PCR product was first verified on a 1.5% agarose gel, followed by melting curve analysis.
# (§5) Neuroblastoma cells (SY5Y) were treated with each agent for 6 hours or 16 hours and control cells were left untreated (U) for the same indicated times (i.e., 6 hours untreated=U6, and 16 hours untreated=U16).
# α-synuclein protein = assay: Western blot of α-synuclein protein levels in treated SY5Y neuroblastoma cells; format: cell-based, human
# Tau mRNA = assay: Quantitative real-time PCR of Tau mRNA levels in SY5Y cells; format: cell-based, human; settings: for Tau mRNA levels: 6 or 16 hours (100 μM DFO where stated), FIG. 5
# Procedure: Quantitative real-time PCR (QRTPCR) was performed on RNA extracted from iron/zinc and desferrioxamine treated mRNA. Methods for QRTPCR were as described for priming an α-synuclein amplicon (see Example 1) except that oligonucleotides were (NM016835Rev) 5′[…]3′ (SEQ ID NO:15) and (NM 016835For) 5′[…]3′ (SEQ ID NO:16).
# as §5
# wild-type pGL3 vector = assay: Luciferase reporter assay, wild-type pGL3 control vector; format: cell-based
# Procedure: (§6) To determine whether α-synuclein 5′UTR sequences were iron responsive SH-SY5Y transfection experiments were performed using an ASN 5′UTR pGL3 construct compared to pGL3, and control vector in which the luciferase expression was translated in the absence of the α-synuclein 5′UTR.
# A 46 base sequence (SEQ ID NO:21) of the α-synuclein 5′ UTR was synthesized with a HindIII site at the 5′ end and a Nco I site at the 3′ end (Integrated DNA Technologies, Coralville, Iowa) and then ligated into a pGL-3 vector (Promega, Madison Wis.) immediately in front of the luciferase gene, under the control of a SV40 promotor. Wild-type pGL3 or pGL3 containing the α-synuclein 5′ UTR insert upstream of the luciferase promotor (α-synuclein 5′UTR-pGL3) were used. Expression of green fluorescent protein (GFP) within the pGL3 vector, controlled by a SV40 late poly(A) signal was used to control for transfection efficiency. 8×10^5 neuroblastoma HYSY cells were seeded for 24 hours in 60-mm^2 dishes with 5 ml Dulbeccco's modified medium containing 10% fetal bovine serum. […] GFP expression was quantified at 489/509 nm with the same Wallac 1420 counter to control for transfection efficiency.
# α-synuclein mRNA = assay: Quantitative real-time PCR of α-synuclein mRNA levels in SY5Y cells; format: cell-based, human; settings: 6 or 16 hours, relative to beta actin (FIG. 4)
# Procedure: as §1, §2
# as §3, with “All reactions were performed in duplicate in a 50 μl volume consisting of 3 μl cDNA, 15 μmol each of the forward and reverse primer of β-Actin and 45 μmol each of the forward and reverse primer of all other primer pairs, and the fluorescent SYBR Green I dye.” left out, “Average Ct values were normalized against that β-Actin amplified in parallel from the same sample.” left out
# as §4
# The details of the annealing temperature are as follows. […] The dsDNA-specific dye SYBR Green I incorporated into the PCR reaction buffer QuantiTech™ SYBR PCR (Qiagen) to allow for quantitative detection of the PCR product in a 25-μl reaction volume. […]
# α-synuclein 5′ UTR = assay: Luciferase reporter assay, α-synuclein 5′UTR-pGL3 transfected neuroblastoma cells; format: cell-based, human; settings: 48 hours, luciferase controlled by α-synuclein 5′ UTR
# Procedure: as §6
# A 46 base sequence (SEQ ID NO:21) of the α-synuclein 5′ UTR was synthesized with a HindIII site at the 5′ end and a Nco I site at the 3′ end (Integrated DNA Technologies, Coralville, Iowa) and then ligated into a pGL-3 vector (Promega, Madison Wis.) immediately in front of the luciferase gene, under the control of a SV40 promotor. Wild-type pGL3 or pGL3 containing the α-synuclein 5′ UTR insert upstream of the luciferase promotor (α-synuclein 5′UTR-pGL3) were used. Expression of green fluorescent protein (GFP) within the pGL3 vector, controlled by a SV40 late poly(A) signal was used to control for transfection efficiency. 8×10^5 neuroblastoma HYSY cells were seeded for 24 hours in 60-mm^2 dishes with 5 ml Dulbeccco's modified medium containing 10% fetal bovine serum. For transfection, cells were first rinsed 3× in Phosphate Buffered Saline (PBS) and then treated with 5 μg of purified DNA combined with PolyFect transfection reagent and growth medium, according to the manufacturer's specifications (Qiagen). After a 24 hours incubation at 37° and 5% CO2 to maximize transfection efficiency, cells were washed in PBS 3×, trypsonized and plated to 95% confluence in 96-well plates. Cells were allowed to seed in the 96-well plates for 12 hours in Dulbecco's modified medium containing 10% fetal bovine serum and ampicillin, to select for cells containing the plasmid, which contained an ampicillin resistance gene. […] Treatment medium was prepared fresh the day of experiment and incubated for 1 hour at 37° prior to the experiment to maximize solubility. […] Cells were lysed with 1× Bright-glo luciferase assay buffer and the lysates combined with bright-glo luciferase assay substrate warmed to 37°, according to the specifications of the manufacturer (Promega, Madison, Wis.). All experiments were performed in triplicate. Automated luciferase assays were performed with a Wallac 1420 multi-label counter. GFP expression was quantified at 489/509 nm with the same Wallac 1420 counter to control for transfection efficiency.
# [2] = biological target: T1, Iron-Regulatory Protein-1 (IRP-1) binding to α-synuclein mRNA (Homo sapiens, UniProt P21399); assay: Immunoprecipitation RT-PCR of α-synuclein mRNA bound to IRP-1 in SH-SY5Y lysates; format: cell-based; settings: iron-treated SH-SY5Y cells, FIG. 6B
# T1 construct: endogenous in cells; host or cells: SH-SY5Y neuroblastoma cells (lysates after treatment of the cells)
# T1 sequence (P21399 1-889): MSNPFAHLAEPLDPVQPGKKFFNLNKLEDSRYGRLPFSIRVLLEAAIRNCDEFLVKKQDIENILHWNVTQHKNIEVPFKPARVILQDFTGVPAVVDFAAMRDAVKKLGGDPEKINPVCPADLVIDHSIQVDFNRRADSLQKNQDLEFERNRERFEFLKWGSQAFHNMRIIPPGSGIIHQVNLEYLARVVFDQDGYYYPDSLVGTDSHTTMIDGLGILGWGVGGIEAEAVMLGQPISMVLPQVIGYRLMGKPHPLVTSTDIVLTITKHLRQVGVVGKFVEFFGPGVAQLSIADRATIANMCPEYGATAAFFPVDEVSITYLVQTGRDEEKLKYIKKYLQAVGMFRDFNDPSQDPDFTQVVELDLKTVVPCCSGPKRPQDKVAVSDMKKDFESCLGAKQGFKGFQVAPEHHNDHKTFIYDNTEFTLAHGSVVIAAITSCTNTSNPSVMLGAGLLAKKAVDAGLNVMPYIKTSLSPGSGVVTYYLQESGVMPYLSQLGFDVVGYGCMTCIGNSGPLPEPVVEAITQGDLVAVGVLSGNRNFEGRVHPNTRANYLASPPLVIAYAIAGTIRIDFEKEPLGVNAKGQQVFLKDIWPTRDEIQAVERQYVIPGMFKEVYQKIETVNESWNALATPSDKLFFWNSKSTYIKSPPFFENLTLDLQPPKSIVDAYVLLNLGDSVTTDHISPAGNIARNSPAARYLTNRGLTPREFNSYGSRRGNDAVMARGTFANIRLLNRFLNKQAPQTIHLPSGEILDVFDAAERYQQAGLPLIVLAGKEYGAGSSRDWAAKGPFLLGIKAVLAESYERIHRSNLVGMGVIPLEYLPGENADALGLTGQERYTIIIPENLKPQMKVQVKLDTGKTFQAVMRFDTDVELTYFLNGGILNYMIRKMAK
# Procedure: Neuroblastoma cells were treated with (i) DFO ([…]), (ii) feTf (10 μM) or remained untreated. Cells were lysed in RIPA buffer, and cytosolic extracts were immunoprecipitated with antibody to IRP-1 and IRP-2. After washing with Fe-beads the bound mRNA or superatant RNA was reverse transcribed and the mRNAs attached to the IRP-1/IRP—2 were identified by immunoprecipitation of RNA that selectively interacted with IRP-1/IRP-2 (method of Thomson, A. M., et al., Biol. Chem. 2005 Aug. 26; 280(34):30032-45. Epub 2005 Jun. 20.
# We tested whether α-synuclein mRNA interacted with IRP-1 or IRP-2 by use of an RNA co-immunoprecipitation technique shown in FIG. 6. In this IPRT-PCR experiment α-synuclein mRNA was selectively co-immunoprecipitated with IRP-1 from neuroblastoma lysates (the presence of ASN mRNA was detected by PCR of cDNA reverse transcribed from mRNA immunopreciptated with IRP-1 on washed beads according to standard methods (Thomson, A. M., et al., (2005) J Biol Chem 280, 30032-30045). Ferritin mRNA was selectively immunopreciptated with both IRP-1 and IRP-2, whereas α-synuclein mRNA was selectively bound to IRP-1, not IRP-2. This technique was semi qualitative PCR, though the amount of α-synuclein mRNA attached IRP-1 was iron dependent in the experiment shown in FIG. 6B. […]
compound,measurement,setting,value
zinc,TfR mRNA responsiveness to zinc (control for iron specificity),[1]; FIG. 5,surprisingly responsive
ferric ammonium citrate [FAC],"α-synuclein protein levels (monomer, 15 kDa)","α-synuclein protein; 100 μM FAC, 6 hour and 3 days, Western blot (FIG. 3)",increase
same,TfR mRNA reduction by FAC,[1]; FIG. 5 (Tau experiment),4 fold
same,Tau mRNA levels,Tau mRNA,down regulated
same,effect on luciferase activity,wild-type pGL3 vector,no effect
same,α-synuclein mRNA levels,α-synuclein mRNA,did not change as significantly although it was reduced; also recorded: not modulated
same,increase in luminescence,α-synuclein 5′ UTR; 10 mg/ml FAC,5 fold
same,increase in luminescence,"α-synuclein 5′ UTR; 100 mg/ml FAC, p<0.001",20 fold
iron,fold reduction for TfR mRNA,"[1]; 400 micromolar iron (16 h), FIG. 5",0.45 fold
same,fold reduction for Tau mRNA,Tau mRNA; 400 micromolar iron (16 h),0.66 fold
same,IRP-1 binding (to α-synuclein mRNA),[2],reduced
"CC(=O)N(O)CCCCCNC(=O)CCC(=O)N(O)CCCCCNC(=O)CCC(=O)N(O)CCCCCN [DFO, desferrioxamine]",steady-state levels of α-synuclein protein,α-synuclein protein; 100 μM DFO (16 h),reduced
same,intracellular levels of α-synuclein protein,α-synuclein protein; short-term (6 h) and long-term (3 d) desferrioxamine treatment,dramatic reduction
same,TfR mRNA up-regulation in response to DFO,"[1]; DFO (100 μM where stated), FIG. 4, relative to beta actin",3 fold
same,TfR mRNA up-regulation in response to DFO,"[1]; FIG. 5 (Tau experiment), 16 hours DFO where stated",4.5 fold
same,Tau mRNA levels,Tau mRNA,up-regulated; also recorded: dramatically changed
same,increase in induction for Tau mRNA,"Tau mRNA; 16 hours treatment with DFO, relative to beta actin",5 fold
same,effect on luciferase activity,wild-type pGL3 vector,no effect
same,α-synuclein mRNA levels,α-synuclein mRNA,unchanged; also recorded: not modulated
same,α-synuclein mRNA levels,α-synuclein mRNA; listed as desferrioxamine,unchanged
same,decrease in luminescence,α-synuclein 5′ UTR; 50 mM DFO,25%
same,decrease in luminescence,"α-synuclein 5′ UTR; 100 mM DFO, p<0.001",50%
